Our source for the TGI and GI50 values is PubChem BioAssay (NCI).

Values joined by “and” are separate entries in the source; they are usually repeats but may differ in a detail not shown here. Equal entries are not always repeated.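 Results reflect a 48-hour exposure of cells in 96-well plates to compound at five concentrations. The concentration for 50% growth inhibition is given as GI50. TGI: concentration producing complete growth inhibition.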 Where a SMILES comes first, the peptide text is derived from it. [ ]: non-standard residue; d: D form. The star is where a group is joined. ξ: configuration not given here. X6 = FC(F)(F)c1cc(NC(=S)*)cc(C(F)(F)F)c1; ξF = NC(Cc1ccccc1)C(=O)O Bounds are passed on as bounds.

One experiment concerns 786-0 renal. Kind of experiment: NCI tumour cell line growth inhibition, 48 h.
Compound `O=C1C=C(Cl)C(=O)C(c2ccc(Cl)cc2)=C1` came in with a TGI of 38.1 µM.

In the case of `COc1cc(-c2nn(-c3ccc(NC(=O)c4ccc(Cl)c(C(F)(F)F)c4)cc3)cc2-c2ccncc2)ccc1Cl`, the GI50 is 1200 nM and the TGI is 2.86 µM.

For `O=C(Nc1ccccc1OC(F)(F)F)Nc1n[nH]c2ccccc12`, the GI50 is 38700 nM and the TGI was > 100 µM.

As for `O=C(/C=C/C12c3ccccc3C(c3ccccc31)C1C(=O)NC(=O)C12)c1ccncc1` (centres undefined), the GI50 was 1940 nM and the TGI turned out to be 4.76 µM.

The compound `O=CN/C=C/c1cc(O)ccc1O` came in with a TGI of 27.1 µM.

Consider `COC(=O)[C@@H](NC(=O)CNC(=O)[C@H]1CCCN1C(=O)C(Cc1ccccc1)NC(=S)Nc1cc(C(F)(F)F)cc(C(F)(F)F)c1)C(C)C` (some centres undefined) (X6-[ξF][dP]GV-OMe), for which the GI50 was 2120 nM and the TGI is 4.34 µM.

Take `COc1cc(Cc2cnc(/N=C3\C(=O)N(CN4CCN(c5c(F)cc6c(=O)c(C(=O)O)cn(C7CC7)c6c5OC)CC4C)c4ccc(F)cc43)nc2N)cc(OC)c1OC` (centres undefined): the GI50 was 11100 nM and the TGI worked out at 23.1 µM.

Take `O=C1/C(=C/c2cccc([N+](=O)[O-])c2)COc2ccc(O)cc21`: the GI50 is 1850 nM and the TGI worked out at 3.83 µM.

`NC(=O)c1sc(-n2cnc3ccccc32)cc1OCc1ccccc1Br`: the GI50 was 11100 nM and the TGI was > 25 µM.

Turning to `Clc1ccc2c(NCCCCNc3nc(N4CCCCC4)nc4ccccc34)ccnc2c1`, the GI50 is 1440 nM and the TGI was 2.76 µM.

For the compound `COc1cc(/C=N/NC(=O)c2ccc(C(F)(F)F)nc2Nc2ccc(Cl)cc2C)ccc1O`, the GI50 is 2640 nM and the TGI came out at 9.93 µM.

Turning to `O=C1CC(c2ccc3c(c2)OCO3)Nc2ccccc21` (centres undefined), the GI50 is 8110 nM and the TGI was determined as 40.2 µM.

Compound `O=C1C(Cl)=C(Nc2cccc(Cl)c2)C(=O)N1Cc1ccc(Cl)cc1Cl` returned a TGI of 4.93 µM.

Take `COC1CCC(N2C(=O)CNc3ncc(-c4ccc(C(C)(C)O)nc4)nc32)CC1` (centres undefined): the GI50 was 962 nM and 243 nM; the TGI is > 32.1 µM.

As to `Cc1cc(I)cc(CN(C)CCCCN2CCCCC2)c1O`, the GI50 is 12600 nM and the TGI came to 25.4 µM.

Another experiment has as its system A498 renal. Kind of experiment: NCI tumour cell line growth inhibition, 48 h.
As for `O=C1C=C(Cl)C(=O)C(c2ccc(Cl)cc2)=C1`, the TGI was found to be 50.8 µM.

As for `COc1cc(-c2nn(-c3ccc(NC(=O)c4ccc(Cl)c(C(F)(F)F)c4)cc3)cc2-c2ccncc2)ccc1Cl`, the GI50 is 2.4 µM and the TGI was found to be 17.9 µM.

Take `O=C(Nc1ccccc1OC(F)(F)F)Nc1n[nH]c2ccccc12`: the GI50 was > 100 µM and the TGI is > 100 µM.

Regarding `O=C(/C=C/C12c3ccccc3C(c3ccccc31)C1C(=O)NC(=O)C12)c1ccncc1` (centres undefined), the GI50 is 14.1 µM and the TGI worked out at 28.3 µM.

Turning to `O=CN/C=C/c1cc(O)ccc1O`, the TGI is > 100 µM.

For the compound `COC(=O)[C@@H](NC(=O)CNC(=O)[C@H]1CCCN1C(=O)C(Cc1ccccc1)NC(=S)Nc1cc(C(F)(F)F)cc(C(F)(F)F)c1)C(C)C` (some centres undefined) (X6-[ξF][dP]GV-OMe), the GI50 was 2.11 µM and the TGI was determined as 7.92 µM.

`COc1cc(Cc2cnc(/N=C3\C(=O)N(CN4CCN(c5c(F)cc6c(=O)c(C(=O)O)cn(C7CC7)c6c5OC)CC4C)c4ccc(F)cc43)nc2N)cc(OC)c1OC` (centres undefined): the GI50 is 26 µM and the TGI came to 49.7 µM.

Take `O=C1/C(=C/c2cccc([N+](=O)[O-])c2)COc2ccc(O)cc21`: the GI50 is 3.35 µM and the TGI came out at 13.4 µM.

Take `NC(=O)c1sc(-n2cnc3ccccc32)cc1OCc1ccccc1Br`: the GI50 is 4.11 µM and the TGI was found to be 14.4 µM.

For the compound `Clc1ccc2c(NCCCCNc3nc(N4CCCCC4)nc4ccccc34)ccnc2c1`, the GI50 was 1.78 µM and the TGI is 4.62 µM.

In the case of `COc1cc(/C=N/NC(=O)c2ccc(C(F)(F)F)nc2Nc2ccc(Cl)cc2C)ccc1O`, the GI50 is 3.1 µM and the TGI was found to be 14.5 µM.

For the compound `O=C1CC(c2ccc3c(c2)OCO3)Nc2ccccc21` (centres undefined), the GI50 is 13.4 µM and the TGI amounted to 28.7 µM.

As for `O=C1C(Cl)=C(Nc2cccc(Cl)c2)C(=O)N1Cc1ccc(Cl)cc1Cl`, the GI50 was 0.771 µM and the TGI came out at 7.12 µM.

Consider `COC1CCC(N2C(=O)CNc3ncc(-c4ccc(C(C)(C)O)nc4)nc32)CC1` (centres undefined), for which the GI50 was 0.0614 µM and 0.0422 µM; the TGI is 0.769 µM and 0.378 µM.

For the compound `Cc1cc(I)cc(CN(C)CCCCN2CCCCC2)c1O`, the GI50 is 11.4 µM and the TGI came to 25.4 µM.

Another experiment concerns EKVX NSCLC. Kind of experiment: NCI tumour cell line growth inhibition, 48 h.
In turn, `O=C1C=C(Cl)C(=O)C(c2ccc(Cl)cc2)=C1` came in with a TGI of 30.2 µM.

For `COc1cc(-c2nn(-c3ccc(NC(=O)c4ccc(Cl)c(C(F)(F)F)c4)cc3)cc2-c2ccncc2)ccc1Cl`, the GI50 was 2.18 µM and the TGI was > 65.1 µM.

Take `O=C(Nc1ccccc1OC(F)(F)F)Nc1n[nH]c2ccccc12`: the GI50 is 48.2 µM and the TGI is > 100 µM.

For the compound `O=C(/C=C/C12c3ccccc3C(c3ccccc31)C1C(=O)NC(=O)C12)c1ccncc1` (centres undefined), the GI50 is 6.02 µM and the TGI was determined as 20.8 µM.

With `O=CN/C=C/c1cc(O)ccc1O`, the TGI came out at 35.6 µM.

For the compound `COC(=O)[C@@H](NC(=O)CNC(=O)[C@H]1CCCN1C(=O)C(Cc1ccccc1)NC(=S)Nc1cc(C(F)(F)F)cc(C(F)(F)F)c1)C(C)C` (some centres undefined) (X6-[ξF][dP]GV-OMe), the GI50 is 3.12 µM and the TGI stood at 22.3 µM.

Consider `COc1cc(Cc2cnc(/N=C3\C(=O)N(CN4CCN(c5c(F)cc6c(=O)c(C(=O)O)cn(C7CC7)c6c5OC)CC4C)c4ccc(F)cc43)nc2N)cc(OC)c1OC` (centres undefined), for which the GI50 was 21.9 µM and the TGI is 56.6 µM.

For `O=C1/C(=C/c2cccc([N+](=O)[O-])c2)COc2ccc(O)cc21`, the GI50 was 3.86 µM and the TGI stood at 13.7 µM.
